# In patent US20230022157A1 (Achillion Pharmaceuticals, Inc., priority 2018, published 2023):
# pIC50: −log10 of the molar value.
# Target: T1, Human Factor D (Homo sapiens, UniProt P00746)
# T1 construct: purified from human serum; purchased Complement Technology, Inc; host or cells: human serum (natural protein, not recombinant)
# Assay: Human Factor D Assay
# Assay type: biochemical
# Conditions: Human Factor D 80 nM, substrate Z-L-Lys-SBzl, assay of Example 3; read-out: IC50 (Stars)
# Method: Human Factor D (purified from human serum, Complement Technology, Inc.) at 80 nM final concentration is incubated with test compound at various concentrations for 5 min at room temperature in 50 mM Tris, 1M NaCl, pH 7.5. A synthetic substrate Z-L-Lys-SBzl and DTNB (Ellman's reagent) are added to final concentrations of 100 μM each. […] IC50 values are calculated by nonlinear regression of complement Factor D reaction rates as a function of test compound concentration.
# T1 sequence (P00746 26-253): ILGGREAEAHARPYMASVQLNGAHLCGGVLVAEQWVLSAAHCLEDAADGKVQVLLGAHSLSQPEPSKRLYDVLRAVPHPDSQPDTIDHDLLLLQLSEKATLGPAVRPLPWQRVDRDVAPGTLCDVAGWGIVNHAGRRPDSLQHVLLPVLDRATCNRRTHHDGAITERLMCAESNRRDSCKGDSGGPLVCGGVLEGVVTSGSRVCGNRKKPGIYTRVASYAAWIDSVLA
row,pIC50,Structure (SMILES)
1,> 6.00,"CC[C@@H](C)NC(=O)[C@@H]1C[C@@]2(C)C[C@H]2N1C(=O)Cn1nc(C(C)=O)c2cc(-c3cnc(C)nc3)ccc21 [Compound 11, (1R,3S,5R)-2-(2-(3-Acetyl-5-(2-methylpyrimidin-5-yl)-1H-indazol-1-yl)acetyl)-N—((R)-sec-butyl)-5-methyl-2-azabicyclo[3.1.0]hexane-3-carboxamide]"
2,> 6.00,"CC(=O)c1nn(CC(=O)N2[C@H](C(=O)N[C@@H](C)CCc3ccccc3)C[C@@]3(C)C[C@@H]23)c2ccc(-c3cnc(C)nc3)cc12 [Compound 12, (1R,3S,5R)-2-(2-(3-Acetyl-5-(2-methylpyrimidin-5-yl)-1H-indazol-1-yl)acetyl)-5-methyl-N—((S)-4-phenylbutan-2-yl)-2-azabicyclo[3.1.0]hexane-3-carboxamide]"

# Same assay, conditions: Human Factor D 80 nM, substrate Z-L-Lys-SBzl; Table 2; read-out: IC50 (Stars)
row,pIC50,Structure (SMILES)
1,> 6.00,"CC(=O)c1nn(CC(=O)N2[C@H](C(=O)NCCc3ccn(C)n3)C[C@@]3(C)C[C@@H]23)c2c(C)cc(-c3cnc(C)nc3)cc12 [Compound 103, (1R,3S,5R)-2-{2-[3-acetyl-7-methyl-5-(2-methylpyrimidin-5-yl)indazol-1-yl]acetyl}-5-methyl-N-[2-(1-methylpyrazol-3-yl)ethyl]-2-azabicyclo[3.1.0]hexane-3-carboxamide]"
2,> 6.00,"CC(=O)c1nn(CC(=O)N2[C@H](C(=O)Nc3nc(Br)ccc3C)C[C@@]3(C)C[C@@H]23)c2c(C)cc(-c3cnc(F)nc3)cc12 [Compound 59, (1R,3S,5R)-2-(2-(3-acetyl-5-(2-fluoropyrimidin-5-yl)-7-methyl-1H-indazol-1-yl)acetyl)-N-(6-bromo-3-methylpyridin-2-yl)-5-methyl-2-azabicyclo[3.1.0]hexane-3-carboxamide]"
3,> 6.00,"CC(=O)c1nn(CC(=O)N2[C@H](C(=O)Nc3nc(Br)ccc3C)C[C@@]3(C)C[C@@H]23)c2cc(CF)c(Nc3cnc(C)nc3)cc12 [Compound 185, (1R,3S,5R)-2-(2-(3-acetyl-6-(fluoromethyl)-5-((2-methylpyrimidin-5-yl)amino)-1H-indazol-1-yl)acetyl)-N-(6-bromo-3-methylpyridin-2-yl)-5-methyl-2-azabicyclo[3.1.0]hexane-3-carboxamide]"
4,> 6.00,"CC(=O)c1nn(CC(=O)N2C[C@H]3C[C@H]3[C@H]2C(=O)Nc2nc(Br)c(F)cc2C)c2c(C)cc(-c3cnc(CO)nc3)cc12 [Compound 76, (1R,2S,5S)-3-(2-(3-acetyl-5-(2-(hydroxymethyl)pyrimidin-5-yl)-7-methyl-11H-indazol-1-yl)acetyl)-N-(6-bromo-5-fluoro-3-methylpyridin-2-yl)-3-azabicyclo[3.1.0]hexane-2-carboxamide]"
5,> 6.00,"CC(=O)c1nn(CC(=O)N2[C@H](C(=O)NCCC3CC3)C[C@@]3(C)C[C@@H]23)c2c(C)cc(-c3cnc(C)nc3)cc12 [Compound 105, (1R,3S,5R)-2-{2-[3-acetyl-7-methyl-5-(2-methylpyrimidin-5-yl)indazol-1-yl]acetyl}-N-(2-cyclopropylethyl)-5-methyl-2-azabicyclo[3.1.0]hexane-3-carboxamide]"
6,> 6.00,"CC(=O)c1nn(CC(=O)N2[C@H](C(=O)Nc3nc(C(F)(F)F)ccc3C)C[C@@]3(C)C[C@@H]23)c2c(C)cc(-c3cnc4cc(CO)nn4c3)cc12 [Compound 227, (1R,3S,5R)-2-(2-(3-acetyl-5-(2-(hydroxymethyl)pyrazolo[1,5-a]pyrimidin-6-yl)-7-methyl-1H-indazol-1-yl)acetyl)-5-methyl-N-(3-methyl-6-(trifluoromethyl)pyridin-2-yl)-2-azabicyclo[3.1.0]hexane-3-carboxamide]"
7,> 6.00,"CC(=O)c1nn(CC(=O)N2C[C@H]3C[C@H]3[C@H]2C(=O)Nc2nc(Br)ccc2C)c2ccc(-c3cnc(CO)nc3)cc12 [Compound 63, (1R,2S,5S)-3-(2-(3-acetyl-5-(2-(hydroxymethyl)pyrimidin-5-yl)-1H-indazol-1-yl)acetyl)-N-(6-bromo-3-methylpyridin-2-yl)-3-azabicyclo[3.1.0]hexane-2-carboxamide]"
8,> 6.00,"CC(=O)c1nn(CC(=O)N2[C@H](C(=O)Nc3nc(C(F)(F)F)ccc3C)C[C@@]3(C)C[C@@H]23)c2c(C)cc(-c3cnc4c(O)c(C)nn4c3)cc12 [Compound 232, (1R,3S,5R)-2-(2-(3-acetyl-5-(3-hydroxy-2-methylpyrazolo[1,5-a]pyrimidin-6-yl)-7-methyl-1H-indazol-1-yl)acetyl)-5-methyl-N-(3-methyl-6-(trifluoromethyl)pyridin-2-yl)-2-azabicyclo[3.1.0]hexane-3-carboxamide]"
9,< 5.00,"CC(=O)c1nn(CC(=O)N2[C@H](C(=O)NC3CCC4(CC3)OCCO4)C[C@@]3(C)C[C@@H]23)c2c(C)cc(-c3cnc(C)nc3)cc12 [Compound 138, (1R,3S,5R)-2-{2-[3-acetyl-7-methyl-5-(2-methylpyrimidin-5-yl)indazol-1-yl]acetyl}-N-{1,4-dioxaspiro[4.5]decan-8-yl}-5-methyl-2-azabicyclo[3.1.0]hexane-3-carboxamide]"
10,> 6.00,"CC(=O)c1nn(CC(=O)N2[C@H](C(=O)N[C@H]3CCCCC3(F)F)C[C@@]3(C)C[C@@H]23)c2c(C)cc(-c3cnc(C)nc3)cc12 [Compound 149, (1R,3S,5R)-2-{2-[3-acetyl-7-methyl-5-(2-methylpyrimidin-5-yl)indazol-1-yl]acetyl}-N-[(1S)-2,2-difluorocyclohexyl]-5-methyl-2-azabicyclo[3.1.0]hexane-3-carboxamide]"
11,> 6.00,"CCCCC(NC(=O)[C@@H]1C[C@@]2(C)C[C@H]2N1C(=O)Cn1nc(C(C)=O)c2cc(-c3cnc(C)nc3)cc(C)c21)C(F)(F)F (stereo partly drawn) [Compound 88, (1R,3S,5R)-2-{2-[3-acetyl-7-methyl-5-(2-methylpyrimidin-5-yl)indazol-1-yl]acetyl}-5-methyl-N-(1,1,1-trifluorohexan-2-yl)-2-azabicyclo[3.1.0]hexane-3-carboxamide]"
12,> 6.00,"CC(=O)c1nn(CC(=O)N2[C@H](C(=O)Nc3cncc(Br)n3)C[C@@]3(C)C[C@@H]23)c2c(C)cc(-c3cnc(CO)nc3)cc12 [Compound 48, (1R,3S,5R)-2-(2-(3-acetyl-5-(2-(hydroxymethyl)pyrimidin-5-yl)-7-methyl-11H-indazol-1-yl)acetyl)-N-(6-bromopyrazin-2-yl)-5-methyl-2-azabicyclo[3.1.0]hexane-3-carboxamide]"
13,> 6.00,"CC(=O)c1cn(CC(=O)N2[C@H](C(=O)Nc3nc(Br)ccc3C)C[C@@]3(C)C[C@@H]23)c2ccc(-c3cnc4cc(C)nn4c3)cc12 [Compound 202, (1R,3S,5R)-2-(2-(3-acetyl-5-(2-methylpyrazolo[1,5-a]pyrimidin-6-yl)-1H-indol-1-yl)acetyl)-N-(6-bromo-3-methylpyridin-2-yl)-5-methyl-2-azabicyclo[3.1.0]hexane-3-carboxamide]"
14,> 6.00,"COCc1ccc(Br)nc1NC(=O)[C@@H]1C[C@@]2(C)C[C@H]2N1C(=O)Cn1cc(C(C)=O)c2cc(-c3cnc4cc(C)nn4c3)cc(C)c21 [Compound 215, (1R,3S,5R)-2-(2-(3-acetyl-7-methyl-5-(2-methylpyrazolo[1,5-a]pyrimidin-6-yl)-1H-indol-1-yl)acetyl)-N-(6-bromo-3-(methoxymethyl)pyridin-2-yl)-5-methyl-2-azabicyclo[3.1.0]hexane-3-carboxamide]"
15,> 6.00,"CC(=O)c1cn(CC(=O)N2[C@H](C(=O)Nc3nc(Br)ccc3C)C[C@@]3(C)C[C@@H]23)c2c(C)cc(-c3cnc(CF)nc3)cc12 [Compound 221, (1R,3S,5R)-2-(2-(3-acetyl-5-(2-(fluoromethyl)pyrimidin-5-yl)-7-methyl-1H-indol-1-yl)acetyl)-N-(6-bromo-3-methylpyridin-2-yl)-5-methyl-2-azabicyclo[3.1.0]hexane-3-carboxamide]"
16,> 6.00,"CC(=O)c1nn(CC(=O)N2[C@H](C(=O)Nc3nc(Br)ccc3C)C[C@@]3(C)C[C@@H]23)c2ccc(-c3cncc(S(C)(=O)=O)c3)cc12 [Compound 121, (1R,3S,5R)-2-(2-(3-Acetyl-5-(5-(methylsulfonyl)pyridin-3-yl)-1H-indazol-1-yl)acetyl)-N-(6-bromo-3-methylpyridin-2-yl)-5-methyl-2-azabicyclo[3.1.0]hexane-3-carboxamide]"
17,> 6.00,"CC(=O)c1nn(CC(=O)N2[C@H](C(=O)Nc3nc(Br)ccc3C)C[C@@]3(C)C[C@@H]23)c2c(C)cc(-c3cnc(CO)cn3)cc12 [Compound 127, (1R,3S,5R)-2-(2-(3-acetyl-5-(5-(hydroxymethyl)pyrazin-2-yl)-7-methyl-1H-indazol-1-yl)acetyl)-N-(6-bromo-3-methylpyridin-2-yl)-5-methyl-2-azabicyclo[3.1.0]hexane-3-carboxamide]"
18,> 6.00,"CC(=O)c1nn(CC(=O)N2[C@H](C(=O)Nc3cc(F)cc(Br)n3)C[C@@]3(C)C[C@@H]23)c2c(C)cc(-c3cnc(CO)nc3)cc12 [Compound 123, (1R,3S,5R)-2-(2-(3-acetyl-5-(2-(hydroxymethyl)pyrimidin-5-yl)-7-methyl-1H-indazol-1-yl)acetyl)-N-(6-bromo-4-fluoropyridin-2-yl)-5-methyl-2-azabicyclo[3.1.0]hexane-3-carboxamide]"

row,Structure (SMILES),pIC50
1,"CC(=O)c1cn(CC(=O)N2[C@H](C(=O)Nc3nc(C(F)(F)F)ccc3Cl)C[C@@]3(C)C[C@@H]23)c2c(C)cc(-c3cnc(C)nc3)cc12 [Compound 233, (1R,3S,5R)-2-(2-(3-acetyl-7-methyl-5-(2-methylpyrimidin-5-yl)-1H-indol-1-yl)acetyl)-N-(3-chloro-6-(trifluoromethyl)pyridin-2-yl)-5-methyl-2-azabicyclo[3.1.0]hexane-3-carboxamide]",> 6.00
